According to patent publication US8637237B2, “Methods, compositions, and systems for the identification of species-specific or developmental stage-specific insecticides” (The University of North Carolina at Greensboro, priority 2003, dated 2014):
Where “and” joins values, the source holds several entries; their conditions need not be identical. Identical values can stand only once.

Tests used:
FXR = target: T1, FXR (Rattus norvegicus, UniProt Q62735); experiment: cell-based; conditions: for FXR-dependent CAT activity, induction: 50 μM
T1 sequence (Q62735 1-469): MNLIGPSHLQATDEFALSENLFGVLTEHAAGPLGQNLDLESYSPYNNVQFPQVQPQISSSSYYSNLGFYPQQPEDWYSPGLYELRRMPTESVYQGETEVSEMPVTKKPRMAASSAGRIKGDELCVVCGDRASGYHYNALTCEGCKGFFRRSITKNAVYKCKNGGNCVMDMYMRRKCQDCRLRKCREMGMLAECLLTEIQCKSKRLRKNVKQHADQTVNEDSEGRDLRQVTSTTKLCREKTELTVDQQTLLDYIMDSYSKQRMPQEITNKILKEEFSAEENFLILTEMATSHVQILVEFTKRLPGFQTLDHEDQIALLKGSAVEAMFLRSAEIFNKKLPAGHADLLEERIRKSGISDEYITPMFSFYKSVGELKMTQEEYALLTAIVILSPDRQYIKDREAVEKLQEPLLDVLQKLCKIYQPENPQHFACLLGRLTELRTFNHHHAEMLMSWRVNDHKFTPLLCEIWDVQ
T1 sequence (P28700 1-467 partner): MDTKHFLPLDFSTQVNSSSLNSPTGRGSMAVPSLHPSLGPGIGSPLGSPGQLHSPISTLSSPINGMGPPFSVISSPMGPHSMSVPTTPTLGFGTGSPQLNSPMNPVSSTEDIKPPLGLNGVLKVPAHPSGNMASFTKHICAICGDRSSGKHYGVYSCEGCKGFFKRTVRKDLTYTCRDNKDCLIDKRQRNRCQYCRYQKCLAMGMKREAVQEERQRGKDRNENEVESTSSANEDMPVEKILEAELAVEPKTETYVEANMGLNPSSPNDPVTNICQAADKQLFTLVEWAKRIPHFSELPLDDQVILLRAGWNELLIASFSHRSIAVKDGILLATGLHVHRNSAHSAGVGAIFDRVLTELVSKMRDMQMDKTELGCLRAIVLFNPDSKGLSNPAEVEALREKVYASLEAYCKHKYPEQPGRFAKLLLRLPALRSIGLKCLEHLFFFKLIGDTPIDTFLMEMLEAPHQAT
In short: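 CHO cells co-transfected with FXR, mouse RXRα and a (EcRE)5-ΔMTV-CAT reporter, with β-galactosidase for normalization. An RXR-dependent CRBPII-CAT reporter was run in parallel. Cells were exposed to candidate juvenoids for 24 h; CAT activity normalized to β-gal and expressed as fold induction over vehicle controls.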

VP16dEcR/RXR = target: T2, VP16dEcR/RXR (Drosophila melanogaster, UniProt P34021); experiment: VP16dEcR with RXR, (EcRE)5-ΔMTV reporter in CHO cells; type: cell-based; design: key to MurA (inducibility): (+) designates a change in transcriptional level that exceeds 2.5-fold; (++) indicates a response at a lower dosage than other EcR forms
T2 construct: expressed in transfected cells; host or cells: CHO
T2 sequence (P34021 252-878 limits assumed): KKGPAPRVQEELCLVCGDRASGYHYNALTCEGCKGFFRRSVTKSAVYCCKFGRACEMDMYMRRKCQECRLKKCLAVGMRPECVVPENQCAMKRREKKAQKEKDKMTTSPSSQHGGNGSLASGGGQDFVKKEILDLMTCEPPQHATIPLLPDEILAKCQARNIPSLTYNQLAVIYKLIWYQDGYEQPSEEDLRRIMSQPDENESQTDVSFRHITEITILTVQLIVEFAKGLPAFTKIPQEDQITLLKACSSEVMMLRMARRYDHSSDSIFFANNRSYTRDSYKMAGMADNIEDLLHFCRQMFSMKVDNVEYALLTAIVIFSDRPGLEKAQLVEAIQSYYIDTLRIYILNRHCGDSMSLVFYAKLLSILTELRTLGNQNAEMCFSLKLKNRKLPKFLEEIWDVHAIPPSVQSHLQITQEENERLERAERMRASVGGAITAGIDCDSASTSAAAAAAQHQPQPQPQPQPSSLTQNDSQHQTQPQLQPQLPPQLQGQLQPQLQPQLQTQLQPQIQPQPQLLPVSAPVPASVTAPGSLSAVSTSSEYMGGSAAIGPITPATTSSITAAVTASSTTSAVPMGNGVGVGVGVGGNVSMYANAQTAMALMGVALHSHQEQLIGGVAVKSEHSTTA
T2 sequence (P28700 1-467 partner): T1 sequence (P28700 1-467 partner)
Procedure: These experiments employed a mammalian cell culture system using Chinese hamster ovary cells (CHO) to evaluate the transcriptional function of Drosophila melanogaster EcR and USP using methods described previously (U.S. Patent Application Publication No: 2005/0049230; Henrich et al, 2003). Cells were seeded in 6-well polypropylene culture plates (Falcon) with 10^5 cells per well on the day prior to transfection. Transfection was subsequently performed using either calcium phosphate (Kitareewan et al., 1996, Mol. Biol. Cell, 7:1153-1196) or a GenePorter reagent (Gene Therapy Systems, Inc; San Diego, Calif.) following manufacturer's protocols. Each well received 1.25 μg of (EcRE)5-ΔMTV-CAT (five copies of the hsp27 EcRE inserted into an mouse mammary tumor virus (MTV) promoter upstream of the chloramphenicol acetyltransferase (CAT) gene) or (EcRE)5-ΔMTV-LUC (the same promoter attached to firefly luciferase), 1.25 μg of pCH111 (SV40 early promoter linked to the β-galactosidase gene) to normalize CAT activity, and 0.25 μg of each expression plasmid (EcR, FXR, RXR, USP) that was tested. The cells were incubated with plasmid DNA for seven hours and then washed with 1×PBS. Muristerone A (murA; Alexis Biochemicals) or 20-hydroxyecdysone (20E; Sigma) dissolved in ethanol to a concentration of 10 mM was diluted as necessary to the final assay concentration (FAC) in 2 ml of fresh incubation medium that was then applied to the cells. Similarly, JHIII (Sigma) was dissolved in dimethyl sulfoxide (DMSO) to a concentration of 80 μM and diluted into the incubation medium to its final assay concentration (20, 40, 80, 160 μM). […] A corresponding volume of ethanol and DMSO were added to control cells for all experiments. […] Both β-galactosidase and CAT reporter activity were measured based on previously used methods (Kitareewan et al, 1996). […]
Transcriptional activity, measured as ^14C-chloramphenicol counts (for measuring CAT activity) or relative luciferase activity (RLU) was quantified for each cell lysate. […]

[1] = final dose of 50 ∝M, 1 = induction less than 2-fold below cytotoxic doses

Molecule: CC(C)(O)CC[C@@H](O)[C@](C)(O)[C@H]1CC[C@@]2(O)C3=CC(=O)[C@@H]4C[C@@H](O)[C@@H](O)C[C@]4(C)[C@H]3CC[C@]12C [20E, 20-hydroxyecdysone]
- FXR-dependent activity, induction (FXR; dose not stated): unresponsive
- 20E (inducibility) (VP16dEcR/RXR; 10 μM 20E): + ((+) designates a change in transcriptional level that exceeds 2.5-fold)

Molecule: COC(=O)/C=C(\C)CC/C=C(\C)CC[C@H]1OC1(C)C [JHIII, juvenile hormone III]
- dose that elicits FXR-dependent activity in the CHO assay (FXR): 2 µM
- FXR-dependent CAT activity, induction (FXR; listed as JH III): 15 fold
- FXR-dependent CAT activity, induction (FXR; listed as juvenile hormone III): 20 fold
- FXR ACTIVITY (fold-induction) (FXR; [1]): 20 fold-induction
- MurA + JHIII (JHIII potentiation) (VP16dEcR/RXR; 0.1 μM murA + 80 μM JHIII): + ((+) indicates observed potentiation that exceeds 2-fold above the levels observed with ecdysteroid alone)

Molecule: CC(C)=CCCC(C)=CCCC(C)=CC(=O)O [farnesoic acid]
- FXR-dependent CAT activity, induction (FXR): 2 fold and 3 fold
- FXR ACTIVITY (fold-induction) (FXR; [1]): 3 fold-induction

Molecule: COC(=O)/C=C(\C)CC/C=C(\C)CCC=C(C)C [methyl farnesoate]
- FXR-dependent CAT activity, induction (FXR): 6 fold

Molecule: CC(C)CC[C@@H](O)[C@](C)(O)[C@H]1CC[C@@]2(O)C3=CC(=O)[C@]4(O)C[C@@H](O)[C@@H](O)C[C@]4(C)[C@H]3[C@H](O)C[C@]12C [murA, muristerone A]
- FXR-dependent activity, induction (FXR; dose not stated): unresponsive
- MurA (inducibility) (VP16dEcR/RXR; 0.1 μM murA): ++

Molecule: juvocimene
- FXR-dependent activity, induction (FXR; 25 μM): 5 fold
- FXR ACTIVITY (fold-induction) (FXR; dose 25 μM): 9 fold-induction
- RXR mediated transcription, increase (FXR; plant-derived JH agonists examined as FXR effectors): 10 fold
